In US12098145B2 (Libra Therapeutics, Inc., priority 2022, dated 2024):

These compounds were tested against T1, TRPML1 (Homo sapiens, UniProt Q9GZU1) (assay: Cellular TRPML1 assay (FLIPR, GCaMP6f calcium read-out)). Details: not given.
T1 construct: expressed in transfected cells; host or cells: HEK T-REx cells stably expressing GCaMP6f and TRPML1
Type: cell-based
How it was run: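 Read-out is GCaMP6f fluorescence over 300 s after compound addition in Ca2+-free Tyrode's buffer, final DMSO 0.5%, on FLIPR Tetra. Cells are HEK T-REx stably co-expressing the indicator and TRPML1, plated 24 h earlier in Optimem + 0.5% FBS and pre-incubated ~10 min at room temperature.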

T1 sequence (Q9GZU1 whole entry): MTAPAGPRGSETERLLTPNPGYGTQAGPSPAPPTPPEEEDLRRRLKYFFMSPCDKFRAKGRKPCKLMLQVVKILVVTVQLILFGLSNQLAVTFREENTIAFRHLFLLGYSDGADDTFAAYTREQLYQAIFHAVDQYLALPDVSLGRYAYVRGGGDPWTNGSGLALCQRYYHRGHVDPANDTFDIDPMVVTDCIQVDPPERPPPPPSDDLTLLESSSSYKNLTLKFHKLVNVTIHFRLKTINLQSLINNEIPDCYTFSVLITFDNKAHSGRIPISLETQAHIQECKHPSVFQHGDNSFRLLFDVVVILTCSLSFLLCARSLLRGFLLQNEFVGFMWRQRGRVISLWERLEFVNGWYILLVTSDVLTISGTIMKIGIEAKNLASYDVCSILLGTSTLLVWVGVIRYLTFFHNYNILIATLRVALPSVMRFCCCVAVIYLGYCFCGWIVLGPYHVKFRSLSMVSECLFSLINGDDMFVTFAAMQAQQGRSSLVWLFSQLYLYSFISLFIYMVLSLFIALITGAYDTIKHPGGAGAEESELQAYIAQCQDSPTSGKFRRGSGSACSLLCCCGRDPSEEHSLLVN

| SMILES | EC50 |
| --- | --- |
| CCC1(OC)CN(c2nc(C(=O)Nc3cc(C)c(N4C5CCCC4CC5)c(F)c3)c(CCF)o2)C1 [Example 291, N-(4-(8-azabicyclo[3.2.1]octan-8-yl)-3-fluoro-5-methylphenyl)-2-(3-ethyl-3-methoxyazetidin-1-yl)-5-(2-fluoroethyl)oxazole-4-carboxamide] | 10 to 1000 nM |

Same assay, conditions: HEKT-REx/GCaMP6f/TRPML1 cells, FLIPR TETRA, kinetic response over 300 seconds; read-out: TRPML1 FLIPR pEC50 (converted)

| SMILES | EC50 |
| --- | --- |
| CCC1(CC)CN(c2nc(C(=O)Nc3ccc(O[C@@H]4C[C@@H]5C[C@@H]5C4)c(O)c3)c(CC(F)(F)F)o2)C1 [Example 270, N-(4-(cis-bicyclo[3.1.0]hexan-3-yloxy)-3-hydroxyphenyl)-2-(3,3-diethylazetidin-1-yl)-5-(2,2,2-trifluoroethyl)oxazole-4-carboxamide] | 1000 to 10000 nM |
| CCc1oc(N2CC(C)(OC)C2)nc1C(=O)Nc1cc(O)c(OC2CC3C[C@@H]3C2)c(Cl)c1 (stereo partly drawn) [Example 271, N-(4-(cis-bicyclo[3.1.0]hexan-3-yloxy)-3-chloro-5-hydroxyphenyl)-5-ethyl-2-(3-methoxy-3-methylazetidin-1-yl)oxazole-4-carboxamide] | 1000 to 10000 nM |
| CCC1(CC)CN(c2nc(C(=O)Nc3cc(F)c(O[C@@H]4C[C@@H]5C[C@@H]5C4)c(F)c3)c(C)o2)C1 [Example 273, N-(4-(cis-bicyclo[3.1.0]hexan-3-yloxy)-3,5-difluorophenyl)-2-(3,3-diethylazetidin-1-yl)-5-methyloxazole-4-carboxamide] | 10 to 1000 nM |
| CCCc1oc(N2CCCC2)nc1C(=O)Nc1cc(F)c(O[C@@H]2C[C@@H]3C[C@@H]3C2)c(F)c1 [Example 274, N-(4-(cis-bicyclo[3.1.0]hexan-3-yloxy)-3,5-difluorophenyl)-5-propyl-2-(pyrrolidin-1-yl)oxazole-4-carboxamide] | 10 to 1000 nM |
| CCC1(CC)CN(c2nc(C(=O)Nc3cc(C)c(NC4CC5CC(C5)C4)c(F)c3)c(CCF)o2)C1 (centres unmarked) [Example 292, N-(4-(bicyclo[3.1.1]heptan-3-ylamino)-3-fluoro-5-methylphenyl)-2-(3,3-diethylazetidin-1-yl)-5-(2-fluoroethyl)oxazole-4-carboxamide] | 1000 to 10000 nM |
| CCC1(CC)CN(c2nc(C(=O)Nc3cc(C)c(O[C@@H]4C[C@@H]5C[C@@H]5C4)c(F)c3)c(CN3CCC3)o2)C1 [Example 297, 5-(azetidin-1-ylmethyl)-N-(4-(cis-bicyclo[3.1.0]hexan-3-yloxy)-3-fluoro-5-methylphenyl)-2-(3,3-diethylazetidin-1-yl)oxazole-4-carboxamide] | 1000 to 10000 nM |

The remaining lines, values ahead:

| EC50 | SMILES |
| --- | --- |
| 1000 to 10000 nM | CCC1(CC)CN(c2nc(C(=O)Nc3cc(C)c(O[C@@H]4C[C@@H]5C[C@@H]5C4)c(F)c3)c(CN3CCCC3)o2)C1 [Example 298, N-(4-(cis-bicyclo[3.1.0]hexan-3-yloxy)-3-fluoro-5-methylphenyl)-2-(3,3-diethylazetidin-1-yl)-5-(pyrrolidin-1-ylmethyl)oxazole-4-carboxamide] |
| 1000 to 10000 nM | CCC1(CC)CN(c2nc(C(=O)Nc3cc(F)c(O[C@@H]4C[C@@H]5C[C@@H]5C4)c(F)c3)c(CN3CCC3)o2)C1 [Example 300, 5-(azetidin-1-ylmethyl)-N-(4-(cis-bicyclo[3.1.0]hexan-3-yloxy)-3,5-difluorophenyl)-2-(3,3-diethylazetidin-1-yl)oxazole-4-carboxamide] |
| 1000 to 10000 nM | CCC1(CC)CN(c2nc(C(=O)Nc3cc(F)c(O[C@@H]4C[C@@H]5C[C@@H]5C4)c(F)c3)c(CN(C)C)o2)C1 [Example 301, N-(4-(cis-bicyclo[3.1.0]hexan-3-yloxy)-3,5-difluorophenyl)-2-(3,3-diethylazetidin-1-yl)-5-((dimethylamino)methyl)oxazole-4-carboxamide] |
| 1000 to 10000 nM | Cc1cc(NC(=O)c2nc(N3CCCC3)oc2CN2CCC2)cc(F)c1O[C@@H]1C[C@@H]2C[C@@H]2C1 [Example 305, 5-(azetidin-1-ylmethyl)-N-(4-(cis-bicyclo[3.1.0]hexan-3-yloxy)-3-fluoro-5-methylphenyl)-2-(pyrrolidin-1-yl)oxazole-4-carboxamide] |
| 1000 to 10000 nM | O=C(Nc1cc(F)c(O[C@@H]2C[C@@H]3C[C@@H]3C2)c(F)c1)c1nc(N2CCCC2)oc1CN1CCC1 [Example 306, 5-(azetidin-1-ylmethyl)-N-(4-(cis-bicyclo[3.1.0]hexan-3-yloxy)-3,5-difluorophenyl)-2-(pyrrolidin-1-yl)oxazole-4-carboxamide] |
| 1000 to 10000 nM | CCC1(CC)CN(c2nc(C(=O)Nc3cc(C)c4c(c3)CCN4C3CC4CC4C3)c(CC(F)(F)F)o2)C1 (centres unmarked) [Example 310, N-(1-(bicyclo[3.1.0]hexan-3-yl)-7-methylindolin-5-yl)-2-(3,3-diethylazetidin-1-yl)-5-(2,2,2-trifluoroethyl)oxazole-4-carboxamide] |
| 1000 to 10000 nM | CCC1(CC)CN(c2nc(C(=O)Nc3cc(F)c4c(c3)CCN4C3CC4CC4C3)c(CC(F)(F)F)o2)C1 (centres unmarked) [Example 311, N-(1-(bicyclo[3.1.0]hexan-3-yl)-7-fluoroindolin-5-yl)-2-(3,3-diethylazetidin-1-yl)-5-(2,2,2-trifluoroethyl)oxazole-4-carboxamide] |
| 1000 to 10000 nM | COC1(C)CN(c2nc(C(=O)Nc3cc(F)c4c(c3)CCN4C3CC4CC4C3)c(CC(F)(F)F)o2)C1 (centres unmarked) [Example 312, N-(1-(bicyclo[3.1.0]hexan-3-yl)-7-fluoroindolin-5-yl)-2-(3-methoxy-3-methylazetidin-1-yl)-5-(2,2,2-trifluoroethyl)oxazole-4-carboxamide] |
| 1000 to 10000 nM | CCC1(OC)CN(c2nc(C(=O)Nc3cc(F)c4c(c3)CCN4C3CC4CC4C3)c(CC(F)(F)F)o2)C1 (centres unmarked) [Example 313, N-(1-(bicyclo[3.1.0]hexan-3-yl)-7-fluoroindolin-5-yl)-2-(3-ethyl-3-methoxyazetidin-1-yl)-5-(2,2,2-trifluoroethyl)oxazole-4-carboxamide] |
| 1000 to 10000 nM | O=C(Nc1cc(F)c2c(c1)CCN2C1CC2CC2C1)c1nc(N2CCC3(COC3)C2)oc1CC(F)(F)F (centres unmarked) [Example 314, N-(1-(bicyclo[3.1.0]hexan-3-yl)-7-fluoroindolin-5-yl)-2-(2-oxa-6-azaspiro[3.4]octan-6-yl)-5-(2,2,2-trifluoroethyl)oxazole-4-carboxamide] |

These compounds were tested on TFEB (assay: TFEB translocation assay (TFEB reporter in U2OS cells, imaging)). Details: Homo sapiens; U2OS cell line with TFEB reporter, 2 hours incubation, nucleus to cytoplasm ratio, normalized to Torin-1; read-out: TFEB Translocation pEC50 (converted).
Type: cell-based
Method: Example B: TFEB Translocation Assay
Reporter TFEB: the reporter is fused to a sequence of monomeric red fluorescent protein.
The reporter TFEB have been stably expressed in U2OS cell line and used as read-out.
Experiments were performed in 384 MTP well format. Cells were seeded in 384-w at a density of 4000 cells/well in 20 μl/well complete growth medium without antibiotics. Twenty-four hours later, cells were treated with compounds and incubated for further 2 hours. Then the cells were imaged and assayed for the response to various compounds using the reporter for TFEB expressed in the cells as readout.
The experiments were performed in a 384-well format according to the following procedure: • 24 h after seeding, cell culture medium was carefully removed and replaced with 20 μl of Opti-MEM (30′ incubation at 37° C. before compound addition) • Then, cells were incubated with compounds diluted in Opti-MEM+0.015% Tween 80 at the desired concentration, with the reference molecule (agonist) Torin-1 at a top concentration of 1 μM (max signal), and with the other reference molecule (agonist) MLSA-5 at top concentration of 20 μM for 2 hours at 37° C. and 5% CO2. The final percentage of DMSO was 0.5% in all the conditions. • Staining of the nuclei was obtained by incubating the cells with 24 μM/well of Hoechst 3342 in standard Tyrode's buffer for 15 min at RT • Then the cells were fixed with PFA 4% for 30 min at RT • After three washes with standard Tyrode's buffer, samples were acquired by recording two fluorescence emission channels (DS-red and blue) at 20× magnification and with at least 3 fields of view per well in an Operetta CLS microscope (PerkinElmer). • Image analysis was performed by using Harmony software (PerkinElmer). The image analysis involved the following steps: flat-field illumination correction, nuclei segmentation, cytoplasm segmentation and calculation of intensity fluorescence in the cytosol and nuclei compartments. Measurements of signal intensity ratio (nucleus to cytoplasm) was used to obtain information on the effects of compounds on the TFEB translocation. • Data from image analysis measurements were finally loaded and analyzed for normalization and fitting procedures in Genedata Screener© software. Data Analysis
Feature: Mean translocation ratio (mean/well)
Data normalization: Stimulator—Neutral control
The GeneData Screener method we have used, normalizes the median of the Stimulator control wells (Torin-1) to 100% and the median of the Neutral control wells (DMSO) to 0% Activity[%]=100*(x−<Min>)/(<“Max”>−<Min>)

| SMILES | EC50 |
| --- | --- |
| O=C(Nc1cc(F)c(OC2CC3C[C@@H]3C2)c(F)c1)c1nc(N2CC3(CCOCC3)C2)oc1CC(F)(F)F (stereo partly drawn) [Example 188, N-(4-(cis-bicyclo[3.1.0]hexan-3-yloxy)-3,5-difluorophenyl)-2-(7-oxa-2-azaspiro[3.5]nonan-2-yl)-5-(2,2,2-trifluoroethyl)oxazole-4-carboxamide] | 10 to 1000 nM |
| O=C(Nc1cc(F)c(OC2CC3C[C@H]3C2)c(F)c1)c1nc(N2CC3(CCOC3)C2)oc1CC(F)(F)F (stereo partly drawn) [Example 189, N-(4-(cis-bicyclo[3.1.0]hexan-3-yloxy)-3,5-difluorophenyl)-2-(6-oxa-2-azaspiro[3.4]octan-2-yl)-5-(2,2,2-trifluoroethyl)oxazole-4-carboxamide] | 10 to 1000 nM |
| CCc1oc(N2CC(CC)(CO)C2)nc1C(=O)Nc1cc(F)c(OC2CC3C[C@H]3C2)c(Cl)c1 (stereo partly drawn) [Example 220, N-(4-(cis-bicyclo[3.1.0]hexan-3-yloxy)-3-chloro-5-fluorophenyl)-5-ethyl-2-(3-ethyl-3-(hydroxymethyl)azetidin-1-yl)oxazole-4-carboxamide] | 10 to 1000 nM |
| CCc1oc(N2CCCC2)nc1C(=O)Nc1cc(F)c(OC2CC3C[C@H]3C2)c(Cl)c1 (stereo partly drawn) [Example 222, N-(4-(cis-bicyclo[3.1.0]hexan-3-yloxy)-3-chloro-5-fluorophenyl)-5-ethyl-2-(pyrrolidin-1-yl)oxazole-4-carboxamide] | 10 to 1000 nM |
| CCc1oc(N2CC(C)(OC)C2)nc1C(=O)Nc1cc(C)c(OC2CC3C[C@H]3C2)c(F)c1 (stereo partly drawn) [Example 226, N-(4-(cis-bicyclo[3.1.0]hexan-3-yloxy)-3-fluoro-5-methylphenyl)-5-ethyl-2-(3-methoxy-3-methylazetidin-1-yl)oxazole-4-carboxamide] | 10 to 1000 nM |
| CCCc1oc(N2CCCC2)nc1C(=O)Nc1cc(F)c(OC2CC3C[C@H]3C2)c(F)c1 (stereo partly drawn) [Example 274, N-(4-(cis-bicyclo[3.1.0]hexan-3-yloxy)-3,5-difluorophenyl)-5-propyl-2-(pyrrolidin-1-yl)oxazole-4-carboxamide] | 10 to 1000 nM |
